{
  "source": "paper PMC5773580",
  "about": "“A synthetic combinatorial approach to disabling deviant Hedgehog signaling” (Scientific Reports, 2018)",
  "key": {"Caco-2 cells": {"test_system": "Caco-2 cells", "experiment": "Caco-2 transwell cell permeability assay read out with 3T3-ShhFL reporter cells", "format": "in vitro ADME", "settings": "10μM, 6hrs, \"B\" CM tested on 3T3-ShhFL cells", "protocol": "Caco-2 cell permeability assay was previously described. Briefly, Caco-2 cells were grown to confluence in 12-well transwell plates. Culture medium was replaced with 10μM of compounds in DMEM/ 3% calf serum and incubated for 6hrs. Diluted media were added to confluent 3T3-ShhFL cells for 48hrs and measure the Hh pathway activity by reporter assay."}, "[1]": {"test_system": "SHH-induced GLI activity (GLI-BS reporter) in NIH3T3", "experiment": "HH pathway reporter (GLI-BS reporter) assay, +Shh in NIH3T3", "format": "cell-based", "settings": "Mus musculus; +Shh in NIH3T3, 48 hrs with compound", "protocol": "(§1) The HH-responsive firefly luciferase reporter (GLI-BS) and a control Renilla luciferase reporter (SV40-RL) were transfected into indicated cell lines using Effectene (Qiagen) either alone or with indicated DNAs. 24 hrs after transfection, cells were switched to low serum media (3% calf serum), and grown for another 48 hrs. in 5% CO2 in the presence/absence of compounds. 3T3-ShhFL cell line that stably expressing SHH and the two reporters were cultured in a similar fashion. FL and RL activities in lysate generated using Passive Lysis Buffer (Promega) were then assessed using the Dual-Luciferase kit (Promega) and a 96-well plate reading luminometer (BMG). The ratio of FL/RL was calculated and the averaged ratios from three replicates were reported."}, "[2]": {"test_system": "GLI-BS reporter in Ptch1-/- MEFs", "experiment": "GLI-BS reporter assay in Ptch1-/- MEFs", "format": "cell-based", "protocol": "as §1"}, "[3]": {"test_system": "SMO-L412F in NIH3T3 (GLI-BS reporter)", "experiment": "GLI-BS reporter assay, NIH3T3 cells with SMO-L412F DNA", "format": "cell-based", "settings": "Mus musculus", "protocol": "as §1"}, "[4]": {"test_system": "SMO-M2 in NIH3T3 (GLI-BS reporter)", "experiment": "GLI-BS reporter assay, NIH3T3 cells with SMO-M2 DNA", "format": "cell-based", "settings": "Mus musculus", "protocol": "as §1"}, "[5]": {"test_system": "nuclear HDAC activity (Ac-H3) in NIH-3T3 cells", "experiment": "Acetylation assay, Western blotting for acetylated histone 3 (Ac-H3)", "format": "cell-based", "settings": "48hrs, Western blot", "protocol": "(§2) For analyzing acetylation status of histone 3 and tubulin, NIH3T3 cells were grown to confluence in 6-well plates. After 48hrs of treatment with indicated chemicals, cells were lysed in RIPA buffer or 1% NP40/phosphate buffered saline/protease inhibitors (SIGMA, #S8820), the lysate cleared using a microcentrifuge, then 6 × sample loading buffer (Bioland Scientific) added to the supernatant. Proteins were separated on SDS-PAGE (BioRad Criterion TGX Precast Gels). Antibodies used for analyzing the blots were: acetylated tubulin (SIGMA, #T6793), tubulin, acetyl-histone H3 (Lys23), and histone H3 (Cell Signaling Technology, #2125 S, #8848 and #9717, respectively). Chemiluminescence was detected using a Li-COR Odyssey Imaging System."}, "[6]": {"test_system": "HDAC activity (acetylated tubulin) in NIH-3T3 cells", "experiment": "Acetylation assay, Western blot of acetylated tubulin", "format": "cell-based", "settings": "48hrs", "protocol": "as §2"}, "[7]": {"test_system": "RMS13 cells (GLI1 amp), GLI-BS reporter", "experiment": "GLI-BS reporter assay in RMS13 cells (GLI1 amplification)", "format": "cell-based", "protocol": "as §1"}, "[8]": {"test_system": "GLI1 binding to DNA in RMS13 cells", "experiment": "GLI DNA binding assay (biotinylated oligo pulldown)", "format": "cell-based", "settings": "lysate of RMS13 cells treated 48 hrs", "protocol": "A detailed protocol for DNA binding assay was previously described. Briefly, cells treated for 48 hrs with compounds were lysed in 1% NP40/phosphate buffered saline/protease inhibitors and cleared using a microcentrifuge. The lysate was then incubated with 0.5 µM of double-strand biotinylated oligonucleotides and 40 µl streptavidin-agarose bead suspension (Thermo Scientific, 20349) for 2 hrs. The streptavidin agarose beads are washed (3X) with 1% NP40/phosphate buffered saline/protease inhibitors and eluted with 2X Laemmli sample buffer. The supernatants are separated on SDS-PAGE and analyzed using western blotting. Antibodies were purchased from the following vendors: GLI1 (Cell Signaling Technology, #2534) and actin (SIGMA, #A5441)."}},
  "data": [
    {"compound": "CC(C)(C)OC(=O)NCCCCCCC(=O)Nc1ccc(Cl)c(C(=O)Nc2ccc(NC(=O)c3cc(Cl)ccc3Cl)cc2)c1", "note": "[IHR-C7]", "values": [
      {"measurement": "ability to transverse a cell monolayer (cell permeability)", "setting": "Caco-2 cells", "value": "improved"},
      {"measurement": "IC50", "setting": "[1]", "value": 4, "unit": "nM"}
    ]},
    {"compound": "CC(C)(C)OC(=O)Nc1ccc(Cl)c(C(=O)Nc2ccc(NC(=O)c3cc(Cl)ccc3Cl)cc2)c1", "note": "[IHR-NBoc, tert-butyl (4-chloro-3-((4-(2,5-dichlorobenzamido)phenyl)carbamoyl)phenyl)carbamate]", "values": [
      {"measurement": "IC50", "setting": "[1]", "value": 1.9, "unit": "nM"}
    ]},
    {"compound": "O=C(Nc1ccc(NC(=O)c2cc(Cl)ccc2Cl)cc1)c1cc(Cl)ccc1Cl", "note": "[IHR-1, reference compound]", "values": [
      {"measurement": "IC50", "setting": "[2]", "value": 25, "unit": "nM"},
      {"measurement": "IC50", "setting": "[1]", "value": 7, "unit": "nM"}
    ]},
    {"compound": "O=C(CCCCCCC(=O)Nc1ccc(Cl)c(C(=O)Nc2cccc(NC(=O)c3cc(Cl)ccc3Cl)c2)c1)NO", "note": "[IHR (meta)-SAHA]", "values": [
      {"measurement": "IC50", "setting": "[3]", "value": 920, "unit": "nM"},
      {"measurement": "IC50", "setting": "[4]", "value": 850, "unit": "nM"},
      {"measurement": "HDAC inhibitory activity, accumulation of acetylated histone 3 (ratio Ac-H3 to total H3)", "setting": "[5]", "value": "retain HDAC inhibitory activity"},
      {"measurement": "HDAC inhibitory activity, acetylated tubulin accumulation (ratio to total tubulin), compared with SAHA", "setting": "[6]", "value": "increase in anti-HDAC activity"},
      {"measurement": "IC50", "setting": "[2]", "value": 2500, "unit": "nM"},
      {"measurement": "IC50", "setting": "[7]", "value": 1200, "unit": "nM"},
      {"measurement": "IC50", "setting": "[1]", "value": 2300, "unit": "nM"}
    ]},
    {"compound": "O=C(CCCCCCC(=O)Nc1ccccc1)NO", "note": "[SAHA, suberanilohydroxamic acid]", "values": [
      {"measurement": "GLI1 binding to immobilized oligos with consensus GLI binding sequence", "setting": "[8]", "value": "loss of GLI1 binding"}
    ]}
  ]
}
